Measured values as given in patent US20150175599A1, “FAAH Inhibitors” (Ironwood Pharmaceuticals, Inc., priority 2010, published 2015).
Where two headings read alike, the source gives them in different places.

Assays:
FAAH = target: T1, FAAH (Homo sapiens, UniProt O00519); test: FAAH inhibition, human brain membrane homogenate assay; type: biochemical
T1 construct: Reactions were initiated by adding 12.5 μg of brain microsome; tissue ABS, Inc; host or cells: human brain cerebral cortex, membrane/microsome fraction pooled from 3 donors
T1 sequence (O00519 1-579): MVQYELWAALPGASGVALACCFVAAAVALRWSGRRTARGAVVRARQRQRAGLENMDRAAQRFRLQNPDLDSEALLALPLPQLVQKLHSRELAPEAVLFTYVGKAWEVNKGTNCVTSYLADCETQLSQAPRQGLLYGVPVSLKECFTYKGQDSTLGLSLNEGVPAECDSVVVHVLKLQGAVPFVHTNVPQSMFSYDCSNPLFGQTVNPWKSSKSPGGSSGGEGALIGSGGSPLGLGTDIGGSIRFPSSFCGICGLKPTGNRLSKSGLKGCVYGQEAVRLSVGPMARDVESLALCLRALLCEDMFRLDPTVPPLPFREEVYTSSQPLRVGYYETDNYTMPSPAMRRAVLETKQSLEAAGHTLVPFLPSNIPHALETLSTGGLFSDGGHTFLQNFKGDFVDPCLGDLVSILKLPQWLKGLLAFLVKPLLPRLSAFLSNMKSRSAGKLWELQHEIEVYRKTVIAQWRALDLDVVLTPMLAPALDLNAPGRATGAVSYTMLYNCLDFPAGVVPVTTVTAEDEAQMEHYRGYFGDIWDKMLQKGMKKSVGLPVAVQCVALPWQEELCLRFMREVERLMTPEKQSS

hERG channel = target: T2, hERG channel (Homo sapiens, UniProt Q12809); test: hERG channel inhibition, automated patch clamp (IonWorks HT, hERG-CHO); type: cell-based; details: CHO cells expressing hERG, 600 s incubation; for inhibition at 600 s, 1 µM: 1 μM compound, read-out: hERG Channel Inhibition % (at 1 μM), vehicle-subtracted values; for inhibition at 600 s, 10 µM: 10 μM compound, read-out: hERG Channel Inhibition % (at 10 μM), vehicle-subtracted values
T2 construct: expressed in transfected cells; host or cells: CHO (hERG-CHO), under Geneticin selection
How it was run: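 hERG-CHO cells held at 30 °C for 48 h before IonWorks HT patch clamp: from −80 mV to +40 for 2 s, then −50 mV for 2 s tail, repeated three times, before and after 600 s compound exposure. Third-pulse post/pre tail amplitude ratio gave percent inhibition; cells with seal <50 MOhm or tail <250 pA excluded.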

[1] = Pharmacokinetic study, plasma level 2 hours after oral dosing in rats; type: in vivo
How it was run: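 Rats dosed by oral gavage in 1% DMA/99% Vitamin E TPGS; EDTA plasma taken by retro-orbital bleed 2 h post-dose. Acetonitrile precipitation with internal standard, LC/MS/MS quantitation against plasma standards 0.1–3000 ng/mL.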

[2] = human brain homogenate, average activity, read-out: Human brain Extract FAAH IC50

T2 sequence (Q12809 whole entry): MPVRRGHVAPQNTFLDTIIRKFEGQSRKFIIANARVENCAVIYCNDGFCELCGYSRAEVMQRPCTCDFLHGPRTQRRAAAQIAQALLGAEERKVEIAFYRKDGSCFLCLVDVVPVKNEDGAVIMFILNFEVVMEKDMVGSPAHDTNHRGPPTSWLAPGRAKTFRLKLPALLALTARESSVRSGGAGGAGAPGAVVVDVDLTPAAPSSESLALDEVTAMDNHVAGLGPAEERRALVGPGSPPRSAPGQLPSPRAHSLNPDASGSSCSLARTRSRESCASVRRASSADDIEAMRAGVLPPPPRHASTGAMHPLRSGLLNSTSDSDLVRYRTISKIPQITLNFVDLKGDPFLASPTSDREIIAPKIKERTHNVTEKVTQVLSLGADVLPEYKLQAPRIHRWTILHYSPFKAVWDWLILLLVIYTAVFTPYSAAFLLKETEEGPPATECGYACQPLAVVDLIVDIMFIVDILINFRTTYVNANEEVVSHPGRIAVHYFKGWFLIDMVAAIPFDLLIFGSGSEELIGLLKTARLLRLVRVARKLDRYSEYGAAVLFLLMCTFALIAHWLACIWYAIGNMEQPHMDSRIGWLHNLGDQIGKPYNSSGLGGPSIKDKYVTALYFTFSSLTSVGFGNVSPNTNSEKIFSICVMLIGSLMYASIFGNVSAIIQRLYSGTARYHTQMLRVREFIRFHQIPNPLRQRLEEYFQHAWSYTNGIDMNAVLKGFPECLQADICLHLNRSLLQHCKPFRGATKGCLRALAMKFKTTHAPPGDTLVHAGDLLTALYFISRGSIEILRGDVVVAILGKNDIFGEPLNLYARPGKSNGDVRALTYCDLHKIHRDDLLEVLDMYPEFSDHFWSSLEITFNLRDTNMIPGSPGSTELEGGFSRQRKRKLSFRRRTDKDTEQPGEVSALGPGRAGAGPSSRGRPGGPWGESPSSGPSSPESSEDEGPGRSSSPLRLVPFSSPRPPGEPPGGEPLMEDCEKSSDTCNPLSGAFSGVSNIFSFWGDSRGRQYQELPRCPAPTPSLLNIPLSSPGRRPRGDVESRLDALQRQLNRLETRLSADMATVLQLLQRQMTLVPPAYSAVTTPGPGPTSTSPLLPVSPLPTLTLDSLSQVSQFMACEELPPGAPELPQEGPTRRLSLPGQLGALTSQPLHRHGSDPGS

COc1cc(NC(=O)C(=O)c2c(C)n(Cc3ccc(Cl)cn3)c3ccc(C)cc23)ccn1 [Compound 61, 2-(1-((5-chloropyridin-2-yl)methyl)-2,5-dimethyl-1H-indol-3-yl)-N-(2-methoxypyridin-4-yl)-2-oxoacetamide]
IC50 (FAAH; [2]): < 100 nM
inhibition at 600 s, 1 µM (hERG channel): 25 to 50%
inhibition at 600 s, 10 µM (hERG channel): 50 to 75%
2 hr plasma level-ng/mL (rat, 10 mg/kg PO, 2 hr) [1]: D (D = greater than 1000 nM)

COc1cc(NC(=O)C(=O)c2c(C)n(Cc3ccc(Cl)cn3)c3ccc(Cl)cc23)ccn1 [Compound 63, 2-(5-chloro-1-((5-chloropyridin-2-yl)methyl)-2-methyl-1H-indol-3-yl)-N-(2-methoxypyridin-4-yl)-2-oxoacetamide]
IC50 (FAAH; [2]): < 100 nM
inhibition at 600 s, 1 µM (hERG channel): < 25%
inhibition at 600 s, 10 µM (hERG channel): 50 to 75%
2 hr plasma level-ng/mL (rat, 10 mg/kg PO, 2 hr) [1]: C (C = between 100 nM and 1000 nM)

COc1cc(NC(=O)C(=O)c2c(C)n(Cc3ccc(Cl)cn3)c3cc(F)c(OC)cc23)ccn1 [Compound 64, 2-(1-((5-chloropyridin-2-yl)methyl)-6-fluoro-5-methoxy-2-methyl-1H-indol-3-yl)-N-(2-methoxypyridin-4-yl)-2-oxoacetamide]
IC50 (FAAH; [2]): < 100 nM
inhibition at 600 s, 1 µM (hERG channel): < 25%
inhibition at 600 s, 10 µM (hERG channel): 25 to 50%
2 hr plasma level-ng/mL (rat, 10 mg/kg PO, 2 hr) [1]: C (C = between 100 nM and 1000 nM)

COc1cc(NC(=O)C(=O)c2c(C)n(Cc3ccc(Cl)cn3)c3cc(OC)c(Cl)cc23)ccn1 [Compound 67, 2-(5-chloro-1-((5-chloropyridin-2-yl)methyl)-6-methoxy-2-methyl-1H-indol-3-yl)-N-(2-methoxypyridin-4-yl)-2-oxoacetamide]
IC50 (FAAH; [2]): < 100 nM
inhibition at 600 s, 1 µM (hERG channel): < 25%
inhibition at 600 s, 10 µM (hERG channel): < 25%
2 hr plasma level-ng/mL (rat, 10 mg/kg PO, 2 hr) [1]: D (D = greater than 1000 nM)

COc1cc(NC(=O)C(=O)c2c(C)n(Cc3ccc(Cl)cn3)c3ccccc23)ccn1 [Compound 68, 2-(1-((5-chloropyridin-2-yl)methyl)-2-methyl-1H-indol-3-yl)-N-(2-methoxypyridin-4-yl)-2-oxoacetamide]
IC50 (FAAH; [2]): < 100 nM
inhibition at 600 s, 1 µM (hERG channel): < 25%
inhibition at 600 s, 10 µM (hERG channel): < 25%
2 hr plasma level-ng/mL (rat, 10 mg/kg PO, 2 hr) [1]: D (D = greater than 1000 nM)

COc1ccc(Cn2c(C)c(C(=O)C(=O)Nc3ccnc(OC)c3)c3cc(C)ccc32)nc1 [Compound 69, 2-(1-((5-methoxypyridin-2-yl)methyl)-2,5-dimethyl-1H-indol-3-yl)-N-(2-methoxypyridin-4-yl)-2-oxoacetamide]
IC50 (FAAH; [2]): < 100 nM
inhibition at 600 s, 1 µM (hERG channel): < 25%
inhibition at 600 s, 10 µM (hERG channel): < 25%
2 hr plasma level-ng/mL (rat, 10 mg/kg PO, 2 hr) [1]: C (C = between 100 nM and 1000 nM)

COc1cc(NC(=O)C(=O)c2c(C)n(Cc3ncc(Cl)cc3Cl)c3cc(Cl)c(OC)cc23)ccn1 [Compound 70, 2-(6-chloro-1-((3,5-dichloropyridin-2-yl)methyl)-5-methoxy-2-methyl-1H-indol-3-yl)-N-(2-methoxypyridin-4-yl)-2-oxoacetamide]
IC50 (FAAH; [2]): < 100 nM
inhibition at 600 s, 1 µM (hERG channel): < 25%
inhibition at 600 s, 10 µM (hERG channel): < 25%
2 hr plasma level-ng/mL (rat, 10 mg/kg PO, 2 hr) [1]: C (C = between 100 nM and 1000 nM)

Cc1c(C(=O)C(=O)Nc2cccc(Cl)c2)c2cc(O)ccc2n1Cc1ccc(Cl)cc1 [Compound 71, 2-(1-(4-chlorobenzyl)-5-hydroxy-2-methyl-1H-indol-3-yl)-N-(3-chlorophenyl)-2-oxoacetamide]
IC50 (FAAH; [2]): < 100 nM
inhibition at 600 s, 1 µM (hERG channel): < 25%
inhibition at 600 s, 10 µM (hERG channel): < 25%
2 hr plasma level-ng/mL (rat, 10 mg/kg PO, 2 hr) [1]: A (A = Less than 10 nM)

COc1cc(NC(=O)C(=O)c2c(C)n(Cc3ccc(Cl)cc3)c3cc(F)c(OC)cc23)ccn1 [Compound 72, 2-(1-(4-chlorobenzyl)-6-fluoro-5-methoxy-2-methyl-1H-indol-3-yl)-N-(2-methoxypyridin-4-yl)-2-oxoacetamide]
IC50 (FAAH; [2]): < 100 nM
inhibition at 600 s, 1 µM (hERG channel): < 25%
inhibition at 600 s, 10 µM (hERG channel): 25 to 50%
2 hr plasma level-ng/mL (rat, 10 mg/kg PO, 2 hr) [1]: C (C = between 100 nM and 1000 nM)

COc1ccc2c(c1)c(C(=O)C(=O)Nc1ccnc(OC)c1)c(C)n2Cc1ccccn1 [Compound 77, 2-(5-methoxy-2-methyl-1-(pyridin-2-ylmethyl)-1H-indol-3-yl)-N-(2-methoxypyridin-4-yl)-2-oxoacetamide]
IC50 (FAAH; [2]): 100 to 1000 nM
inhibition at 600 s, 1 µM (hERG channel): < 25%
inhibition at 600 s, 10 µM (hERG channel): < 25%
2 hr plasma level-ng/mL (rat, 10 mg/kg PO, 2 hr) [1]: C (C = between 100 nM and 1000 nM)

COc1cc(NC(=O)C(=O)c2c(C)n(Cc3ncc(F)cc3F)c3ccc(C)cc23)ccn1 [Compound 88, 2-(1-((3,5-difluoropyridin-2-yl)methyl)-2,5-dimethyl-1H-indol-3-yl)-N-(2-methoxypyridin-4-yl)-2-oxoacetamide]
IC50 (FAAH): < 100 nM
inhibition at 600 s, 1 µM (hERG channel): < 25%
inhibition at 600 s, 10 µM (hERG channel): < 25%
2 hr plasma level-ng/mL (rat, 10 mg/kg PO, 2 hr) [1]: D (D = greater than 1000 nM)

COc1ccc(Cn2c(C)c(C(=O)C(=O)Nc3ccnc(OC)c3)c3cc(OC)c(C)cc32)nc1 [Compound 96, 2-(5-methoxy-1-((5-methoxypyridin-2-yl)methyl)-2,6-dimethyl-1H-indol-3-yl)-N-(2-methoxypyridin-4-yl)-2-oxoacetamide]
IC50 (FAAH; [2]): < 100 nM
inhibition at 600 s, 1 µM (hERG channel): < 25%
inhibition at 600 s, 10 µM (hERG channel): < 25%
2 hr plasma level-ng/mL (rat, 10 mg/kg PO, 2 hr) [1]: C (C = between 100 nM and 1000 nM)

COc1cc(NC(=O)C(=O)c2c(C)n(Cc3ncc(Cl)cc3F)c3cc(Cl)c(OC)cc23)ccn1 [Compound 97, 2-(6-chloro-1-((5-chloro-3-fluoropyridin-2-yl)methyl)-5-methoxy-2-methyl-1H-indol-3-yl)-N-(2-methoxypyridin-4-yl)-2-oxoacetamide]
IC50 (FAAH; [2]): < 100 nM
inhibition at 600 s, 1 µM (hERG channel): < 25%
inhibition at 600 s, 10 µM (hERG channel): < 25%
2 hr plasma level-ng/mL (rat, 10 mg/kg PO, 2 hr) [1]: C (C = between 100 nM and 1000 nM)

COc1ccc(Cn2c(C)c(C(=O)C(=O)Nc3ccnc(OC)c3)c3cc(OC)c(Cl)cc32)nc1 [Compound 98, 2-(6-chloro-5-methoxy-1-((5-methoxypyridin-2-yl)methyl)-2-methyl-1H-indol-3-yl)-N-(2-methoxypyridin-4-yl)-2-oxoacetamide]
IC50 (FAAH; [2]): < 100 nM
inhibition at 600 s, 1 µM (hERG channel): < 25%
inhibition at 600 s, 10 µM (hERG channel): < 25%
2 hr plasma level-ng/mL (rat, 10 mg/kg PO, 2 hr) [1]: C (C = between 100 nM and 1000 nM)

COc1cc(NC(=O)C(=O)c2c(C)n(Cc3ncc(Cl)cc3F)c3cc(F)c(OC)cc23)ccn1 [Compound 99, 2-(1-((5-chloro-3-fluoropyridin-2-yl)methyl)-6-fluoro-5-methoxy-2-methyl-1H-indol-3-yl)-N-(2-methoxypyridin-4-yl)-2-oxoacetamide]
IC50 (FAAH; [2]): < 100 nM
inhibition at 600 s, 1 µM (hERG channel): < 25%
inhibition at 600 s, 10 µM (hERG channel): < 25%
2 hr plasma level-ng/mL (rat, 10 mg/kg PO, 2 hr) [1]: D (D = greater than 1000 nM)

COc1cc(NC(=O)C(=O)c2c(C)n(Cc3ncc(F)cc3F)c3cc(F)c(OC)cc23)ccn1 [Compound 101, 2-(1-((3,5-difluoropyridin-2-yl)methyl)-6-fluoro-5-methoxy-2-methyl-1H-indol-3-yl)-N-(2-methoxypyridin-4-yl)-2-oxoacetamide]
IC50 (FAAH; [2]): < 100 nM
inhibition at 600 s, 1 µM (hERG channel): < 25%
inhibition at 600 s, 10 µM (hERG channel): < 25%
2 hr plasma level-ng/mL (rat, 10 mg/kg PO, 2 hr) [1]: D (D = greater than 1000 nM)
